Data set [1] relates to lignification in the Casparian strip. The following applies: five day old seedlings grown in vitro, continuous exposure to 10 μM; Van de Wouwer et al., 2016; cited from earlier work.
For data set [2], the system named is C4H gene. The data set can be described thus: C4H gene expression in root system of rice plants after foliar treatment. It is filed as in vivo, Oryza sativa cv. Bomba. The following applies: fourteen-day old rice plants, foliar treatment 24 and 3 hours prior to harvest, 100 μM. An excerpt: Techniques for measuring and determining the (effect on) activity of C4H are well known to the one of ordinary skill in the art. Useful methods to determine inhibition of C4H activity are (incorporated by reference): • Measurement of the conversion efficiency of trans-cinnamic acid labeled with ^13C or ^14C in the presence of a potential C4H inhibitor in plant cell cultures or in yeast microsomes in which the CYP73A1 is expressed (as described in Schoch et al. 2002; Van de Wouwer et al. 2016; Schalk et al. 1998). Representative inhibition kinetics values obtained in cell suspensions for both competitive and irreversible C4H inhibitors can be found in Table 1 in Schoch et al., 2002 (incorporated by reference). • Inhibition of the C4H enzyme increases the concentration of free trans-cinnamic acid, which is rapidly conjugated in planta. The accumulation of trans-cinnamic acid amino acid conjugates, which can be quantified using HPLC-MS, can be used as a proxy measure for C4H inhibition in planta. This approach is outlined in Steenackers et al. 2016. […] Representative values for the increase in the quantity of trans-cinnamic acid conjugates are found in Supplemental Figure S2 in Steenackers et al. 2016 (incorporated by reference). • Inhibition of the C4H enzyme causes a compensatory upregulation of the C4H gene, as shown in Example 20. […]

The test system of data set [3] is Arabidopsis thaliana seedlings. The following applies: continuous exposure of seedlings; Steenackers et al. 2016; read-out: IC50-root (dose required to reduce primary root elongation by 50%); cited from earlier work.
Data set [4] concerns Frankliniella occidentalis. The data set can be described thus: Western flower thrips progeny on pepper plants. It is filed as in vivo. Conditions: 300 μM, progeny counted three days after four-day infestation with ten adults (control 19.0±1.84). Here is the method: Pepper seedlings (cv. Cayenne long slim) were transferred to individual pots with potting soil two weeks after sowing. Plants were maintained in a growth room (25° C., 16:8 L:D) for two additional weeks. Plants were removed from the soil and placed with their roots in water (to accommodate the Plexiglas cage system) at the onset of thrips infestation (4 weeks old).
(§1) A 100 mM piperonylic acid stock was prepared by dissolving piperonylic acid (Sigma-Aldrich, Saint-Louis, USA) in DMSO (Duchefa Biochemie, Haarlem, the Netherlands). Before use, this stock solution was diluted with distilled water to a concentration of 300 μM and mixed with 0.1 v/v % Tween 20. Working solutions of 1000 μM PA (Aculops experiment) were prepared in a similar manner from a 300 mM stock solution. The resulting spraying solution was applied to plants until run-off using an atomizer. As a control, a solution consisting of an equivalent amount of DMSO and Tween 20 was used in the same manner. Plants were sprayed twice, one and eight days before inoculation. […]
F. occidentalis was reared on bean pods in an incubator at 28° C.; 70% RH and 16:8 L:D. For inoculation of the PA-treated (300 μM) or Control plants, 10 females (two days old since turning adult) were transferred with a fine brush to a pepper plant inside a Plexiglas cage. After four days, all females were removed, while their progeny was counted three days later.

Data set [5] relates to Spodoptera exigua. Nature of the data set: Acute (direct) toxicity to Spodoptera exigua L3 larvae. Conditions: 300 μM, out of 30 larvae (control 29). Type of data set: in vivo. Here is the method:
Spodoptera exigua—S. exigua was reared on an artificial diet in a 24° C. incubator. Recently molted L3 larvae were placed in petri dishes containing tissue paper and 2 g of artificial feed pellets. Both tissue paper and pellets were wetted with 10 ml of either distilled water or distilled water containing 300 μM PA. Twenty-four and seventy-two hours later, the number of surviving caterpillars was counted. A caterpillar was considered alive if it was either actively moving, or if it moved when gently prodded. It was also recorded whether a caterpillar was feeding (present on a feed pellet) to measure whether PA-treated feed pellets were repellent to the caterpillar.
S. exigua—Direct toxicity of piperonylic acid (PA) was determined using the protocol outlined in the materials and methods section. Briefly, 30 recently molted L3 larvae were placed per petri dish containing tissue paper and food pellets that had been wetted with either a 300 μM piperonylic acid solution or a water control.

The subject of data set [6] is Tetranychus urticae. The data set can be described thus: Acute (direct) toxicity to spider mites sprayed on leaf discs. The following applies: 300 μM spray, after 24 h. Type of data set: in vivo. How it is done: Tetranychus urticae—Spider mites of a laboratory reference strain were collected and placed on arenas consisting of a square bean leaf disc, placed on wet cotton wool and lined with paper tissue. Each arena received 25 to 30 adult female mites. The arenas were then sprayed in a custom-build spray tower with either 300 μM PA or control solution, six replicates each. The mites were incubated at 25° C., 18:6 L:D. Mortality was scored after 24 h. Mites were scored as either drowned (in water barrier), alive or dead (not moving its own body length within 10 seconds after prodding with a tiny brush).
T. urticae—Direct toxicity of PA to spider mites was evaluated by spraying mites on leaf disks with either 300 μM PA or control solution.

The test system of data set [7] is Arabidopsis thaliana seedlings. Nature of the data set: Primary root elongation of Arabidopsis thaliana seedlings (IC50-root). It is filed as in vivo. Conditions: continuous exposure of seedlings, unpublished data, read-out: IC50-root (dose required to reduce primary root elongation by 50%).
The test system of data set [8] is Bemisia tabaci. Nature of the data set: Tobacco whitefly egg development on cotton after foliar spray. Type of data set: in vivo. Conditions: 300 μM foliar spray. How it is done: Cotton seeds were germinated in individual pots filled with potting soil and placed in a greenhouse with supplemental lighting (16 hours of light per day).
(§2) A 100 mM piperonylic acid stock was prepared by dissolving piperonylic acid (Sigma-Aldrich, Saint-Louis, USA) in DMSO (Duchefa Biochemie, Haarlem, the Netherlands). Before use, this stock solution was diluted with distilled water to a concentration of 300 μM and mixed with 0.1 v/v % Tween 20. Working solutions of 1000 μM PA (Aculops experiment) were prepared in a similar manner from a 300 mM stock solution. The resulting spraying solution was applied to plants until run-off using an atomizer. As a control, a solution consisting of an equivalent amount of DMSO and Tween 20 was used in the same manner. Plants were sprayed twice, one and eight days before inoculation. The tomato plants used in the spider mite experiment were sprayed a final time five days after inoculation, but only on the non-inoculated leaves to avoid direct effects of the spray on the mites.
B. tabaci (biotype Q) was reared on cotton plants under controlled laboratory conditions. Approximately sixty mixed-sex adults were collected and placed in ventilated vials attached to the leaves of two-week old cotton plants. After being allowed to oviposit for 24 hours, the adults were removed. Eight days after oviposition, leaves were detached and the number of unhatched eggs, crawlers and nymphs per plant was recorded.

In data set [9] the test system is Rhopalosiphum padi. Nature of the data set: Bird cherry-oat aphid reproduction on wheat, first experiment. It is filed as in vivo. The following applies: 300 μM foliar spray, ten days. Here is the method: (§3) Winter wheat (cv. Sahara) seeds were obtained from Aveve Agrarisch (Landen, Belgium). Seeds were washed with a 10% ethanol solution to remove residual fungicide traces and then germinated on wet paper at room temperature. Seedlings were transferred to potting soil and placed in a growth chamber at 22° C. with 16 hours per day of fluorescent light.
as §1, with “manner.” for “manner. Plants were sprayed twice, one and eight days before inoculation.”
In the first experiment, R. padi aphids were reared on barley plants grown at room temperature. […] Twenty-four hours later, the number of remaining adults on each pot was recorded. Ten days later, the number of aphids in each pot was counted. The reproductive factor was calculated by dividing the number of aphids counted after ten days by the number of remaining adult females twenty-four hours after inoculation.

The test system of data set [10] is Tetranychus urticae. The data set can be described thus: Two-spotted spider mite reproduction on tomato after foliar spray. It is filed as in vivo. Conditions: 300 μM foliar spray, ten days after inoculation with ten females. Here is the method:
Tomato (cv. Moneymaker) seeds were obtained from Vreeken's Zaden (Dordrecht, the Netherlands). Seeds were germinated on potting soil at 22° C.; seedlings were then transferred to individual pots filled with potting soil and placed in a growth chamber at 24° C. with 16 hours per day of fluorescent light.
A 100 mM piperonylic acid stock was prepared by dissolving piperonylic acid (Sigma-Aldrich, Saint-Louis, USA) in DMSO (Duchefa Biochemie, Haarlem, the Netherlands). Before use, this stock solution was diluted with distilled water to a concentration of 300 μM and mixed with 0.1 v/v % Tween 20. Working solutions of 1000 μM PA (Aculops experiment) were prepared in a similar manner from a 300 mM stock solution. The resulting spraying solution was applied to plants until run-off using an atomizer. […]
Tomato plants in the early four-leaf stage were inoculated with T. urticae by placing ten adult females on the second leaf of each plant. […] All moving mites present on the leaf were counted (regardless of life stage).
Images of tomato leaves damaged by S. exigua were analyzed using the ImageJ software. For T. urticae damage, the total area of the second leaf of each plant was quantified using the polygon selection tool. Then, the total area of chlorotic patches on the leaf was measured in the same manner and the ratio of both values was calculated to obtain the percentage of chlorotic leaf.

For data set [11], the system named is Rhopalosiphum padi. The data set can be described thus: Bird cherry-oat aphid reproduction on wheat, second experiment (synchronized aphids). It is filed as in vivo. The following applies: 300 μM foliar spray, ten days. Here is the method:
as §3
as §1, with “manner.” for “manner. Plants were sprayed twice, one and eight days before inoculation.”
In the second experiment, R. padi aphids were reared on barley plants grown at room temperature. […] Twenty-four hours later, the number of remaining adults on each pot was recorded. Ten days later, the number of aphids in each pot was counted. The reproductive factor was calculated by dividing the number of aphids counted after ten days by the number of remaining adult females twenty-four hours after inoculation.

In data set [12] the test system is Aculops lycopersici. Nature of the data set: Tomato russet mite population growth on tomato. Type of data set: in vivo. The following applies: ten days after inoculation with 30 mites. How it is done: as §2
A. lycopersici was reared on tomato plants in an incubator at 27° C.; 50% RH and 16:8 L:D. For inoculation of the PA-treated (300 μM or 1000 μM) or Control plants, 30 mites were transferred with a fine brush to a small leaf disk (1 cm), which was then placed on top of the plants. The mites were allowed the reproduce on the tomato plants during ten days, after which the total number of mites was compared.

Data set [13] deals with Steneotarsonemus spinki. The data set can be described thus: Greenhouse experiment: rice yield and fertility under panicle rice mite stress. Type of data set: in vivo. How it is done:
Rice seeds (cv. Kitaake) were sterilized and germinated on wet paper in the dark at 30° C. Seedlings were transferred to sterilized potting soil and placed in a climate-controlled compartment at the Ghent University greenhouse complex (Melle, Belgium). The compartment was known to host a natural mite infestation; the causal mite had previously been identified as Steneotarsonemus spinki by professor Thomas van Leeuwen of the agrozoology lab at Ghent University. Pots were arranged in a completely randomized manner in the same tray.
To determine the effects of C4H inhibition on yield and fertility in the presence of mites, rice (Oryza sativa cv. Kitaake) was grown in a greenhouse until maturity and treated with a control or 300 μM PA foliar spray at bi-weekly intervals. This greenhouse is naturally infested with the panicle rice mite (Steneotarsonemus spinki).

For data set [14], the system named is Aculops lycopersici. Nature of the data set: Acute (direct) toxicity to russet mites sprayed on leaf disks. Type of data set: in vivo. Conditions: 300 μM spray, after 24 h. Here is the method:
Aculops lycopersici—Tomato russet mites were collected from a lab culture and transferred to a tomato leaf disk placed on agar. Each disk received 25 to 30 adult mites. The disks with mites were then sprayed in a custom-build spray tower with either 300 μM PA or control solution, six replicates each. The russet mites were incubated at 25° C., 18:6 L:D. Mortality was scored after 24 h. Mites were scored as either lost (in agar barrier), alive or dead.
A. lycopersici—Direct toxicity of PA to russet mites was evaluated by spraying mites on leaf disks with either 300 μM PA or control solution.

Where [15] appears, read: rice, 300 μM foliar spray bi-weekly, three months after emergence.

Where two headings read alike, the source gives them in different places.

By IC50 is commonly meant the concentration that inhibits the measured activity by half.

Regarding `O=C(O)C=Cc1ccc2c(c1)OCO2` [MDCA, 3,4-methylenedioxycinnamic acid], the “increase of the number of non-lignified endodermal cells in the Casparian strip region” value in data set [1] is 104%. Moreover, the “increase of C4H expression in the root system” value in data set [2] was “three-fold”. Besides, the IC50 in data set [3] is 5.07 µM.
As to `O=C(O)c1ccc(I)cc1` [4-IBA, 4-iodobenzoic acid], in data set [1], the “increase of the number of non-lignified endodermal cells in the Casparian strip region” value is listed as 57%.
`O=C(O)c1ccc2c(c1)OCO2` [PA, Piperonylic acid]: the “increase of the number of non-lignified endodermal cells in the Casparian strip region” value in data set [1] is 134%. For the same compound, in [4], the “number of thrips larvae recovered (mean±SE)” value was found to be 11.33±1.82 larvae. For the same compound, the L3 larvae alive in data set [5] (after seventy-two hours) is listed as 27; in data set [5] (after twenty-four hours) it was 28. The “increase of C4H expression in the root system” value in data set [2] was “ten-fold”. Further, in [6], the “spider mite mortality vs control” value is listed as “No significant difference”. Moreover, the IC50 in data set [7] worked out at 40 µM. In addition, in data set [8] (24 hours oviposition), the “number of eggs deposited on cotton plants” value was “did not affect”. In addition, the “eggs failed to hatch” value in [8] (eight days after oviposition (control 3%)) worked out at 20%. Moreover, the “eggs developed into nymphs” value in data set [8] (eight days after oviposition (control 16%)) is recorded as 9%. The entries for the “change in reproductive factor of R. padi vs control” value in data set [9] and in data set [11] were −32% and 29%, respectively. For the same compound, in [10], the “change in number of mites present on the leaf vs control” value was −49%. Besides, the “change in percentage of visibly chlorotic leaf area vs control” value in [10] is recorded as −62%. The “reduction of russet mite population growth vs control” value is on record as “about 50%” in data set [12] (300 μM, not significant (p=0.052)) and “about 50%” in data set [12] (1000 μM, not significant (p=0.089)). Besides, the “change in number of seeds vs control” value in data set [13] (rice cv. Kitaake, 300 μM foliar spray at bi-weekly intervals, three months after emergence) was “+104%”. Besides, in data set [13] (setting [15]), the “empty panicles vs control” value is listed as “fewer empty panicles”. Moreover, the “tillers developed vs control” value in [13] (setting [15]) was “more tillers”. For the same compound, the “change in seed germination rate vs control” value in data set [13] (seeds from treated plants, seven days on wet paper) is recorded as “+45%”. In addition, the “russet mite mortality vs control” value in [14] is “No significant difference”.

Values taken from patent US12593844B2, “Method and compounds to induce plant tolerance against arthropod pests” (Universiteit Gent, priority 2018, dated 2026).
